Target: T1, complex I (NADH dehydrogenase) (Mus musculus, UniProt P03888+Q91WD5+Q91YT0+Q9DC70)
T1 construct: gene Ndufs2; native respiratory complex in intact isolated mouse liver mitochondria; with NADH dehydrogenase [ubiquinone] flavoprotein 2, mitochondrial; NADH-ubiquinone oxidoreductase 75 kDa subunit, mitochondrial; NADH dehydrogenase [ubiquinone] iron-sulfur protein 3, mitochondrial; NADH dehydrogenase [ubiquinone] iron-sulfur protein 8, mitochondrial; NADH-ubiquinone oxidoreductase chain 2; NADH-ubiquinone oxidoreductase chain 3; NADH-ubiquinone oxidoreductase chain 4; NADH-ubiquinone oxidoreductase chain 4L; NADH-ubiquinone oxidoreductase chain 5; NADH-ubiquinone oxidoreductase chain 6
Assay: NADH:DCIP reduction, absorbance […] nm
Assay type: biochemical
Details: isolated mouse liver mitochondria; DCIP as artificial electron acceptor, glycylglycine pH 8.5; turnover only

SMILES: NC(=O)C1=CN([C@@H]2O[C@H](COP(=O)(O)OP(=O)(O)OC[C@H]3O[C@@H](n4cnc5c(N)ncnc54)[C@H](O)[C@@H]3O)[C@@H](O)[C@H]2O)C=CC1 [NADH]
- NADH:DCIP reduction, absorbance 600 nm: artificial electron acceptor dichlorophenolindophenol (DCIP) in the presence of NADH

— PMC3675020, “Repositioning of Verrucosidin, a Purported Inhibitor of Chaperone Protein GRP78, as an Inhibitor of Mitochondrial Electron Transport Chain Complex I” (PLoS ONE, 2013)
